# In patent publication US20150050410A1, “COMPOUNDS, COMPOSITIONS, AND METHODS FOR MODULATING SWEET TASTE” (Chromocell Corporation, priority 2013, published 2015):
# System: perception of the sweet taste of an aqueous solution of sweetener in humans
# Test: Two-alternative forced choice "sip and spit" method (2AFC)
# Format: in vivo
# Method: The taste test panelists used in the Examples 1-3 were selected using a sensory acuity screening program. Candidate taste panelists were recruited, with prescreening and personal interviews, and were assessed and for their ability to detect, recognize and differentiate basic taste attributes or mixtures thereof as part of a standardized acuity test. This included basic tastes of sweet, sour, salty, bitter and umami, as well as having the capacity to focus on specific aspects of sensory character such as ranking the various tastes perceived and identifying the basic tastes presented at threshold levels.
# The effect of the test compounds on the perception of the sweet taste of an aqueous solution of sweetener in humans was evaluated using a two-alternative forced choice “sip and spit” method (2AFC).
# The aqueous sweetener solutions were prepared by adding, fructose, sucrose or glucose (by weight), to water to achieve the desired concentration.
# Compounds were first prepared as a 500-fold concentrated stock solution in 100% ethanol. These concentrated stocks were then added to the aqueous sweetener solutions to result in a final ethanol concentration of 0.2%. The control (positive and negative) samples were also normalized to 0.2% ethanol. This level of ethanol was not seen to contribute any perceived sweetness.
# The 2AFC test used for compound evaluation was a blind and randomized test where taste panelists (n=15) evaluate a pair of sweetener solutions at a time one sample contains aqueous sweetener solution plus compound (i.e. test) while the other contains aqueous sweetener solution at higher concentration without compound (i.e. positive control). Each test sample was compared against a positive control. For example, if the test sample contained 1× sweetener concentration with compound (e.g. 5% sucrose with compound), the positive control sample contained a 1.1× sweetener concentration (e.g. 5.5% sucrose without compound).
# Panelists were instructed not to eat or drink (except water) for at least 1 h before the test. During the test, panelists were instructed to sip each sample, swirl it around their mouth and then expectorate. After tasting each sample in the pair, panelists were instructed to record the sample that is “sweeter” in taste. Panelists cleansed their palates by rinsing with water, eating a cracker and waiting for an interval of about 5 minutes. Each pair was tasted twice. All samples were tasted at ambient temperatures. Data were analyzed using binomial probabilities.
# Approximate levels of sweetness enhancement in column 5 of Table 2 were calculated as follows:
# Approximate levels of sweetness enhancement=Sweetener concentration of positive control surpassed by the test sample, divided by sweetener concentration for compound-containing sample (e.g. 1.15×=5.75% sucrose/5% sucrose).
compound,measurement,setting,value
"COc1ccc(C2CC(=O)c3c(O)cccc3O2)cc1O (racemic) [Compound 1, 5-hydroxy-2-(3-hydroxy-4-methoxyphenyl)chroman-4-one]",Fold increase in perceived sweetness,"test sample 4% fructose, compound 25 ppm, positive control conc. / test sample conc.",>1.20X
same,Sweetener Concentration of positive control surpassed by test sample,"test sample 4% fructose, positive control fructose, compound 25 ppm",> 4.8%
same,Sweetener Concentration of positive control surpassed by test sample,"test sample 5% sucrose, positive control sucrose, compound 15 ppm",> 5.75%
same,Sweetener Concentration of positive control surpassed by test sample,"test sample 6.5% glucose, positive control glucose, compound 10, 25 ppm",> 7.48%
